In data set [1] the target is T1, human recombinant AChE (Homo sapiens, UniProt P22303).
T1 construct: purchased Sigma-Aldrich, Milan, Italy
The data set can be described thus: Inhibition of human AChE (Ellman's assay). The class given is biochemical. The following applies: 20 min preincubation at 37 °C, pH 8.0, read-out: IC50 (hAChE). How it is done: (§1) Next, the in vitro inhibition of human acetylcholinesterase (hAChE) and human butyrylcholinesterase (hBuChE) was assessed according to the method of Ellman
(§2) The ability of QT78 to inhibit human ChE activity was assessed using Ellman’s assay. A Jasco V-530 double beam spectrophotometer connected to a HAAKE DC30 thermostating system (Thermo Haake, Vreden, Germany) was used. […] Either 50 µL of a solution of the tested compound at increasing concentrations or 50 µL of solvent (methanol or water) were added to the assay solution and preincubated at 37 °C with the enzyme for 20 min before the addition of substrate. […] In parallel, blanks containing all components except the enzyme were prepared to account for the non-enzymatic hydrolysis of the substrate. The reaction rates were compared and the percentage of inhibition due to the presence of test compound was calculated. Each concentration was analyzed in duplicate/triplicate. The percentage of inhibition of the enzyme activity due to the presence of inhibitor was calculated. Inhibition plots were obtained for each compound by plotting the percentage of inhibition versus the logarithm of inhibitor concentration in the assay solution. The linear regression parameters were determined for each curve and the IC50 extrapolated.

For data set [2], the system named is SH-SY5Y cells. The data set can be described thus: Neuroprotection in SH-SY5Y cells against okadaic acid (OA) toxicity (MTT). Particulars: 1 μM compound, compared with lower concentrations. In kind it is cell-based, human. How it is done: (§3) Finally, following the protocols described in the Supporting Information, we evaluated the neuroprotective profile of QT78 against two toxic insults related to neurodegeneration, using melatonin (10 nM) as a reference compound: (a) a model of reactive oxygen species (ROS) generation, based on the cocktail of the mitochondrial respiratory chain blockers rotenone and oligomycin A (R/O), and (b) hyperphosphorylation of tau protein using okadaic acid (OA), a well-known protein phosphatase inhibitor.
(§4) Human SH-SY5Y cells were maintained in a 1:1 mixture of Nutrient Mixture F-12 and Eagle´s minimum essential medium (EMEM) supplemented with 15 nonessential amino acids, 1 mM sodium pyruvate, 10% heat-inactivated FBS, 100 units/mL penicillin, and 100 μg/mL streptomycin. Cultures were seeded into flasks containing supplemented medium and maintained at 37 °C in a humidified atmosphere of 5% CO2 and 95% air. For assays, SH-SY5Y cells were sub-cultured in 96-well plates at a seeding density of 5 × 10^4 cells per well for 2 days. […]
(§5) MTT reduction was performed as described for both HepG2 and SH-SY5Y human cell lines. […] Colorimetric determination of MTT reduction was measured in an ELISA microplate reader at 540 nm. […]

Data set [3] can be described thus: in vitro. In kind it is cell-based. Particulars: human. The procedure: The human hepatoma HepG2 cell line was kindly provided by the IdiPAZ Institute for Health Research (Madrid, Spain). They were cultured in Eagle´s minimum essential medium (EMEM) supplemented with 15 nonessential amino acids, 1 mM sodium pyruvate, 10 % heat-inactivated FBS, 100 units/mL penicillin, and 100 µg/mL streptomycin (reagents from Invitrogen, Madrid, Spain). […] Culture media were changed every 2 days. […] For assays, cells were subcultured in 96-well plates at a seeding density of 1 × 10^5 cells per well.
MTT reduction was performed as described for both HepG2 and SH-SY5Y human cell lines. Briefly, 50 µL of the MTT labeling reagent, at a final concentration of 0.5 mg/mL, was added. […] Colorimetric determination of MTT reduction was measured in an ELISA microplate reader at 540 nm. Non-treated cells were considered controls and were taken as 100% viability.

The subject of data set [4] is SH-SY5Y cells. Kind of data set: Neuroprotection in SH-SY5Y cells against rotenone/oligomycin A (R/O) toxicity (MTT). In kind it is cell-based, human. The following applies: 1 μM compound, compared with lower concentrations. How it is done:
as §3, §4, §5

The target in data set [5] is T2, BuChE from human serum (Homo sapiens, UniProt P06276).
T2 construct: BuChE from human serum (Sigma-Aldrich, Milan, Italy); purchased Sigma-Aldrich, Milan, Italy; host or cells: human serum
T2 sequence (P06276 29-602): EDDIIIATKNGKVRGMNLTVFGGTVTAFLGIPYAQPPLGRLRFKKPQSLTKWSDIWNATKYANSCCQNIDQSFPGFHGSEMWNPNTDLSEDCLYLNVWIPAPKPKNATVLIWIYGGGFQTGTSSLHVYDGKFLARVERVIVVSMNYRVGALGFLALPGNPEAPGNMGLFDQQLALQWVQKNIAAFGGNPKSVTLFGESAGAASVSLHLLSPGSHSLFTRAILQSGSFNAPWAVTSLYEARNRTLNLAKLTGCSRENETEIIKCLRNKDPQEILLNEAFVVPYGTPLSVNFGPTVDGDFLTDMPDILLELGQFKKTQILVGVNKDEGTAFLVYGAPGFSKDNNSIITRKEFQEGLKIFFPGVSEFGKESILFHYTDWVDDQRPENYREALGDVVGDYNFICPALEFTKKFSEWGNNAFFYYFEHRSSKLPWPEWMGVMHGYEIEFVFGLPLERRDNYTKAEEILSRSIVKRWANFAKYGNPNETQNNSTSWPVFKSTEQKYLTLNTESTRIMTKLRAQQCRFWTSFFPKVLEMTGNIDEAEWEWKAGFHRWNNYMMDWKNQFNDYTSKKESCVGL
The data set can be described thus: Inhibition of human BuChE (Ellman's assay). In kind it is biochemical. Particulars: 20 min preincubation at 37 °C, pH 8.0, read-out: IC50 (hBuChE). How it is done:
as §1, §2

T1 sequence (P22303 32-614): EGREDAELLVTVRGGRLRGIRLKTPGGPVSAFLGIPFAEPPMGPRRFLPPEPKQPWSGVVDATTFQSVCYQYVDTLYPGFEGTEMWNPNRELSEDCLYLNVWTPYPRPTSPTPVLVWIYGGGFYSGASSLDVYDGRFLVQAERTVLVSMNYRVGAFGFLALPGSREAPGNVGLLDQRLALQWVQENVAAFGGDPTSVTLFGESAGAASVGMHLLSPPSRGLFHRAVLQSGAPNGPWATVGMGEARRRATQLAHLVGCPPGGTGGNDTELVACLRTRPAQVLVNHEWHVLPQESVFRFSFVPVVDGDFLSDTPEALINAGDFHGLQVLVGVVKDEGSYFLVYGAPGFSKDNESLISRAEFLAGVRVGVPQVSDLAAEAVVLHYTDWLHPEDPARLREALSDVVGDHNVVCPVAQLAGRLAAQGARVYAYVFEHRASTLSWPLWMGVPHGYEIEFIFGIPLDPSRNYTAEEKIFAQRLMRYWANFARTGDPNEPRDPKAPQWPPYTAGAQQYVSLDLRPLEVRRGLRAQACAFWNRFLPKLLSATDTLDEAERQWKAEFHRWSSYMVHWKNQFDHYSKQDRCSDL

Turning to `Nc1c2c(nc3nc4ccccc4nc13)CCCC2` [QT78, 1,2,3,4-tetrahydroquinolino[2,3-b]quinoxalin-12-amine], the IC50 in data set [1] is 22 ± 1.3 µM. In addition, in data set [2], the “protective capacity against OA” value is “the protective capacity decreased”. Besides, in data set [3], the viability at 24 h, 1 µM is 96.7 ± 2.14%; the viability at 24 h, 3 µM stood at 97.6 ± 2.2%; the viability at 24 h, 10 µM came out at 97.1 ± 1.64%; the viability at 24 h, 30 µM is 95.1 ± 1.5%. Moreover, in data set [3], the viability at 24 h, 100 µM came to 90.5 ± 1.86%; the viability at 24 h, 300 µM came out at 78.1 ± 0.94%; the viability at 24 h, 1000 µM was determined as 68.3 ± 2.92%. The “protective capacity against R/O” value in data set [4] is given as “the protective capacity decreased”. Moreover, the IC50 in data set [5] is 6.79 ± 0.33 µM.

The values above are taken from PMC6514705, “QuinoxalineTacrine QT78, a Cholinesterase Inhibitor as a Potential Ligand for Alzheimer’s Disease Therapy” (Molecules, 2019).
